# According to ChEMBL document CHEMBL4619803, “Stepwise Design of γ-Secretase Modulators with an Advanced Profile by Judicious Coordinated Structural Replacements and an Unconventional Phenyl Ring Bioisostere” (J Med Chem, 2020):
# Values joined by “and” are separate entries in the source; they are usually repeats but may differ in a detail not shown here. Identical values can stand only once.
# Columns and labels:
# [1] = Fraction unbound in human plasma; type: ADME, cell-free
# [2] = Fraction unbound in mouse plasma; type: ADME, cell-free
# [3] = biological target: Gamma-secretase (Homo sapiens) (UniProt Q96BI3+Q9NZ42+Q8WW43+P49768+Q92542+P49810); experiment: (§1) Modulation of gamma secretase in human H4 cells over expressing human APP695 harboring K595N/M596L Swedish double mutant assessed as reduction in Abeta42 production after 24 hrs by Alphalisa assay; type: cell-based
# Gamma-secretase = experiment: as §1; type: cell-based
# [4] = (§2) Modulation of mouse gamma secretase assessed as reduction in Abeta42 production
# Mus musculus [5] = species: Mus musculus; experiment: as §2
# Mus musculus [6] = experiment: In vivo modulation of gamma secretase in APP-Swedish transgenic mouse assessed as reduction in Abeta42 production by measuring remaining Abeta42 level at 1 mg/kg, po measured after 4 hrs by ELISA or AlphaLISA assay relative to control; type: functional
# Mus musculus [7] = experiment: In vivo modulation of gamma secretase in APP-Swedish transgenic mouse assessed as reduction in Abeta42 production by measuring remaining Abeta42 level at 3 mg/kg, po measured after 4 hrs by ELISA or AlphaLISA assay relative to control; type: functional
# Mus musculus [8] = experiment: In vivo modulation of gamma secretase in APP-Swedish transgenic mouse assessed as reduction in Abeta42 production by measuring remaining Abeta42 level at 10 mg/kg, po measured after 4 hrs by ELISA or AlphaLISA assay relative to control; type: functional
# [9] = Octanol/water distribution co-efficient, log D of the compound at pH 7.4; type: physicochemical
# [10] = Solubility of compound by lyophilisation solubility assay; type: physicochemical
# [11] = Clearance in human hepatocytes assessed per million cells; type: ADME, cell-based, Hepatocyte; conditions: read-out: CLH
# [12] = Clearance in mouse hepatocytes assessed per million cells; type: ADME, cell-based, Hepatocyte; conditions: read-out: CLH
# [13] = biological target: Voltage-gated inwardly rectifying potassium channel KCNH2 (Homo sapiens, UniProt Q12809); experiment: (§3) Inhibition of human ERG
# Chain of Voltage-gated inwardly rectifying potassium channel KCNH2 (Q12809 whole entry): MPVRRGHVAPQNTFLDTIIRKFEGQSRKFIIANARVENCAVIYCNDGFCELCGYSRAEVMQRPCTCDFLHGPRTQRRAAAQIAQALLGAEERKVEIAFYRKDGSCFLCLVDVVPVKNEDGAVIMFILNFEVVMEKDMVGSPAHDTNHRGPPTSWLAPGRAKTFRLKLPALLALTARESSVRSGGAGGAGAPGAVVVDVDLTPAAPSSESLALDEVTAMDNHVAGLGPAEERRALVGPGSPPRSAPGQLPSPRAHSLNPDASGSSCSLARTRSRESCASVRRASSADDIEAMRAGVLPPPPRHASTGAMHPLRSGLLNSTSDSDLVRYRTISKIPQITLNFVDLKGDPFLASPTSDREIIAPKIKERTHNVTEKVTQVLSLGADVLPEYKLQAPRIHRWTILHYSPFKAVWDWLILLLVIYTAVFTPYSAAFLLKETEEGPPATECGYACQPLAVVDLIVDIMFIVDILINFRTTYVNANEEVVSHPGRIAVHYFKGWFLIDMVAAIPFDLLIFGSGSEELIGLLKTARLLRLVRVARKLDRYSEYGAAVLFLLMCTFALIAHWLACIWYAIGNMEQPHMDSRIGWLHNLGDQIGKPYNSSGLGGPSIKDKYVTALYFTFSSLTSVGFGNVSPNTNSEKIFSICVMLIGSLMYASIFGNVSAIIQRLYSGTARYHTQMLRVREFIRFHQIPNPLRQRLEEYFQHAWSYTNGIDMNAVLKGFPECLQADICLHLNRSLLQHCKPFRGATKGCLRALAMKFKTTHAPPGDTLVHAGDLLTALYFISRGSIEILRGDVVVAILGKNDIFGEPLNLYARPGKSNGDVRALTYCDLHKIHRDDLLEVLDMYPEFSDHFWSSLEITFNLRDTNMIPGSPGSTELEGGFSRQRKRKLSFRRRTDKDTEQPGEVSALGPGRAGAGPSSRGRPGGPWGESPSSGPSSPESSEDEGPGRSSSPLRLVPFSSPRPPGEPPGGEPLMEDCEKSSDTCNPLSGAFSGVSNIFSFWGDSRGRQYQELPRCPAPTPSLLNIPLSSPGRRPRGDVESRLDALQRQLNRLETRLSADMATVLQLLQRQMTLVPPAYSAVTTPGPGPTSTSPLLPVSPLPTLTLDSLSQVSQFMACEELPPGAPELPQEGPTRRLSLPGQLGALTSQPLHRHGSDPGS
# hERG (KCNH2) = hERG (KCNH2) (Homo sapiens, UniProt Q12809); experiment: as §3; conditions: human
# Chain of hERG (KCNH2) (Q12809 whole entry): as above
# [14] = biological target: Phosphatidylinositol 4-kinase beta (Homo sapiens, UniProt Q9UBF8); experiment: Binding affinity to PIK4CB (unknown origin); type: ADME
# Chain of Phosphatidylinositol 4-kinase beta (Q9UBF8 whole entry): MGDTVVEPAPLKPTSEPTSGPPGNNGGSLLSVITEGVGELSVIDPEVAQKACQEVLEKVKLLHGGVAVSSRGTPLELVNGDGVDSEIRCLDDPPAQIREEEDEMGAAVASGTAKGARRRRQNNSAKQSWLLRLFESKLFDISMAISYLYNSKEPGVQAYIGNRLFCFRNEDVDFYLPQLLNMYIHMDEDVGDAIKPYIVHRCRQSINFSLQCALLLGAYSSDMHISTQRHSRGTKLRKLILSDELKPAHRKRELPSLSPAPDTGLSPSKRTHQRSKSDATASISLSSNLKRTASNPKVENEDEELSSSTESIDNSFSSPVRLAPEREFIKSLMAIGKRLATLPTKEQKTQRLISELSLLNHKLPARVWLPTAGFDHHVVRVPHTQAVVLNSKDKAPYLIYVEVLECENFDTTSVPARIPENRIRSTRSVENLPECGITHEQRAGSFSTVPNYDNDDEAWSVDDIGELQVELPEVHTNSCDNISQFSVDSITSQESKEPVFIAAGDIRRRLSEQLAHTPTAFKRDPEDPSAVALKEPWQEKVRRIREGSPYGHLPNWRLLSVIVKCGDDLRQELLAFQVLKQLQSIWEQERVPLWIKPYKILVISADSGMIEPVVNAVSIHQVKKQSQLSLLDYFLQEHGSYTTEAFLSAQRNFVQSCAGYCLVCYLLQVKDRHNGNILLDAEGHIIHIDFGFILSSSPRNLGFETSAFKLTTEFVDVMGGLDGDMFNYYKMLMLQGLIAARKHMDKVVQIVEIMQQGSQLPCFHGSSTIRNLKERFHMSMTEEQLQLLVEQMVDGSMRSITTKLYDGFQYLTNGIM
# Keratinocyte = experiment: Phototoxicity in human Keratinocytes in presence of UVA at 320 to 400 nm; type: cell-based; conditions: light or radiation study
# Melanocyte = experiment: Phototoxicity in human Melanocytes in presence of UVA at 320 to 400 nm; type: cell-based; conditions: light or radiation study
# [15] = Ratio of IC50 for dark toxicity in human Keratinocytes to IC50 for phototoxicity in human Keratinocytes in presence of UVA at 320 to 400 nm; type: cell-based, Keratinocyte; conditions: read-out: Ratio IC50
# [16] = Ratio of IC50 for dark toxicity in human Melanocytes to IC50 for phototoxicity in human Melanocytes in presence of UVA at 320 to 400 nm; type: cell-based, Melanocyte; conditions: read-out: Ratio IC50
# [17] = Covalent protein binding in human liver microsomes assessed per mg protein in presence of NADPH; type: ADME, Microsome
# [18] = Fraction unbound in rat plasma; type: ADME, cell-free
# [19] = Clearance in rat hepatocytes assessed per million cell; type: ADME, cell-based, Hepatocyte; conditions: read-out: CLH
# [20] = Mutagenicity in Salmonella typhimurium by Ames test; type: toxicity; conditions: salmonella enterica subsp. enterica serovar typhimurium
# [21] = Solubility of the compound in fasted state simulated intestinal fluid; type: physicochemical; conditions: simulated gi fluid
# [22] = Solubility in fed state simulated intestinal fluids; type: physicochemical; conditions: simulated gi fluid
# [23] = Cytotoxicity against human embryonic stem cells assessed as reduction in cell viability; type: cell-based
# [24] = Thermodynamic solubility of the compound; type: physicochemical
Compound,fraction unbound [1],fraction unbound [2],IC50 (Gamma-secretase),IC50 [4],logD [9],solubility [10],hepatocyte CLint [11],hepatocyte CLint [12],Kd [14],other results
Cc1nsc(N2C[C@H]3CC[C@@H](C2)[C@@H]3Nc2nc3c(OCC(F)(F)F)cccn3n2)n1,0.028,0.06 to 0.101,21 nM,9 nM,3.17,198 µg/mL,1.3 µL/min/1e6 cells,4 to 6.4 µL/min/1e6 cells,150 nM,fIC50 [3]: 12 nM; fIC50 (Mus musculus [5]): 5 nM; Activity (Mus musculus [6]): 59%; remaining Abeta42 level (% of control) (Mus musculus [7]): 33%; remaining Abeta42 level (% of control) (Mus musculus [8]): 15%; IC50 [13]: > 10 µM; IC20 (hERG (KCNH2)): 4500 nM; IC50 (Keratinocyte): 443 µM; IC50 (Melanocyte): 443 µM; selectivity ratio [15]: 1.1; selectivity ratio [16]: 1.1; PB [17]: 30 pmol
Cc1nsc(N2C[C@H]3CC[C@@H](C2)[C@@H]3Nc2nc3c(OCCC(F)(F)F)cccn3n2)n1,0.03,0.0521,14 nM,–,3.36,1.7 µg/mL,1.3 µL/min/1e6 cells,21 µL/min/1e6 cells,–,–
Cc1nsc(N2C[C@H]3CC[C@@H](C2)[C@@H]3Nc2nc3c(OCCCC(F)(F)F)cccn3n2)n1,–,–,14 nM,–,3.76 to 3.9,0.2 to 1 µg/mL,–,–,–,–
Cc1cc(N2C[C@H]3CC[C@@H](C2)[C@@H]3Nc2nc3c(OCC(F)(F)C(F)(F)F)cccn3n2)on1,0.02,0.032,7 nM,3 nM,4.1,11 µg/mL,4 µL/min/1e6 cells,34 µL/min/1e6 cells,–,–
FC(F)(F)COc1cccn2nc(N[C@@H]3[C@@H]4CC[C@H]3CN(c3ccnc(C(F)(F)F)c3)C4)nc12,0.012,0.02,24 nM,21 nM,4.04,11 µg/mL,1 µL/min/1e6 cells,9 µL/min/1e6 cells,250 nM,–
Cc1nnc(N2C[C@H]3CC[C@@H](C2)[C@@H]3Nc2nc3c(OC(C)C(F)(F)F)ccc(C(F)(F)F)n3n2)o1 (stereo not given in full),0.028,0.044,27 nM,20 nM,3.58,77 µg/mL,1 µL/min/1e6 cells,1.6 µL/min/1e6 cells,> 40000 nM,–
Cc1nsc(N2C[C@H]3CC[C@@H](C2)[C@@H]3Nc2nc3c(O[C@@H](C)C(F)(F)F)cccn3n2)n1,0.028,0.06,16 nM,–,3.69,78 µg/mL,3.1 µL/min/1e6 cells,10 µL/min/1e6 cells,–,–
Cc1cc(N2C[C@H]3CC[C@@H](C2)[C@@H]3Nc2nc3c(OCC(F)(F)F)ccc(C(F)(F)F)n3n2)sn1,0.002,–,2 nM,2 nM,4.1,0.6 µg/mL,2 µL/min/1e6 cells,19 µL/min/1e6 cells,40000 to 100000 nM,–
Cc1nsc(N2C[C@H]3CC[C@@H](C2)[C@@H]3Nc2nc3c(OC(F)(F)F)cccn3n2)n1,–,–,61 nM,–,3.3,102 µg/mL,–,–,–,–
Cc1noc(N2C[C@H]3CC[C@@H](C2)[C@@H]3Nc2nc3c(OCC(F)(F)F)cccn3n2)n1,–,0.095,114 nM,> 400 nM,1.79,55 to 265 µg/mL,–,4.6 µL/min/1e6 cells,–,–
O=S(=O)(N[C@H]1CC[C@@](c2cc(F)ccc2F)(S(=O)(=O)c2ccc(Cl)cc2)CC1)C(F)(F)F,–,–,–,–,–,–,–,–,–,remaining Abeta42 level (% of control) (Mus musculus [8]): 24 - 28%
COc1cccn2nc(N[C@@H]3[C@@H]4CC[C@H]3CN(c3nc(C)ns3)C4)nc12,0.12,0.16,231 nM,–,2.59,396 µg/mL,10 µL/min/1e6 cells,27 µL/min/1e6 cells,–,–
Cc1noc(N2C[C@H]3CC[C@@H](C2)[C@@H]3Nc2nc3c(OCC(F)(F)F)ccc(C(F)(F)F)n3n2)n1,0.017,0.031,33 nM,20 nM and 12 nM,3.79,55 µg/mL,1 µL/min/1e6 cells,8.5 µL/min/1e6 cells,> 40000 nM,fIC50 [3]: 21 nM; IC50 [13]: 8.75 µM; IC20 (hERG (KCNH2)): 3500 nM; fraction unbound [18]: 0.046; hepatocyte CLint [19]: 6.9 µL/min/1e6 cells; Activity [20]: Non-Toxic; solubility [21]: 12 µg/mL; solubility [22]: 92 µg/mL; IC50 (Keratinocyte): 33 µM; IC50 (Melanocyte): 33 µM; Activity [23]: Non-Toxic; Therm solubility [24]: 5 µg/mL
Cc1cc(N2C[C@H]3CC[C@@H](C2)[C@@H]3Nc2nc3c(OCC(F)(F)F)cccn3n2)sn1,0.017,0.018,4 nM,4 nM,3.9 to 3.99,31 µg/mL,3.3 µL/min/1e6 cells,15 µL/min/1e6 cells,120 nM,fIC50 [3]: 3 nM; fIC50 (Mus musculus [5]): 3 nM; Activity (Mus musculus [6]): 75%; remaining Abeta42 level (% of control) (Mus musculus [7]): >=47 - 50%; remaining Abeta42 level (% of control) (Mus musculus [8]): >50%; IC50 [13]: 2.9 µM; IC20 (hERG (KCNH2)): 900 nM; IC50 (Keratinocyte): > 137 µM; IC50 (Melanocyte): > 137 µM; selectivity ratio [15]: 1; selectivity ratio [16]: 1; PB [17]: 96 pmol
Cc1cc(N2C[C@H]3CC[C@@H](C2)[C@@H]3Nc2nc3c(O[C@@H](C)C(F)(F)F)cccn3n2)sn1,0.01,0.034,6 nM,–,3.81,6.3 µg/mL,3.1 µL/min/1e6 cells,36 µL/min/1e6 cells,85 nM,–
Cc1nnc(N2C[C@H]3CC[C@@H](C2)[C@@H]3Nc2nc3c(OC(C)C(F)(F)F)cccn3n2)o1 (stereo not given in full),–,–,108 nM,–,2.68,346 µg/mL,–,–,–,–
Cc1noc(N2C[C@H]3CC[C@@H](C2)[C@@H]3Nc2nc3c(OCC(F)(F)C(F)(F)F)cccn3n2)n1,0.055,0.061,20 nM,17 nM,3.57,144 µg/mL,1 µL/min/1e6 cells,11 µL/min/1e6 cells,–,–
Cc1nsc(N2C[C@H]3CC[C@@H](C2)[C@@H]3Nc2nc3c(OCC4COC4)cccn3n2)n1,–,–,49 nM,–,2.26,456 µg/mL,–,–,–,–
Cc1cc(N2C[C@H]3CC[C@@H](C2)[C@@H]3Nc2nc3c(OCC(F)F)ccc(C(F)(F)F)n3n2)ncn1,0.028,0.017,21 nM,11 nM,3.9,88 µg/mL,2.3 µL/min/1e6 cells,9.4 µL/min/1e6 cells,23000 nM,fIC50 [3]: 12 nM; fIC50 (Mus musculus [5]): 7 nM; IC50 [13]: 4.5 µM; IC20 (hERG (KCNH2)): 1400 nM; fraction unbound [18]: 0.01; hepatocyte CLint [19]: 5.8 µL/min/1e6 cells; Activity [20]: Non-Toxic; solubility [21]: 13 µg/mL; solubility [22]: 466 µg/mL; IC50 (Keratinocyte): 31 µM; IC50 (Melanocyte): 31 µM; Activity [23]: Non-Toxic; Therm solubility [24]: 3 µg/mL
